Test results from the supplement of paper PMC10307832.

What was measured:
Assay in all cases: relative viability (nuclei count vs DMSO), 5 days (fraction); higher = more cells survive
[1] = compound: C1CNCCC1C2=CC(=NN2)C3=CC=NC=C3 + CC(C)C[C@H](NC(=O)[C@H](Cc1ccccc1)NC(=O)c1cnccn1)B(O)O [Bortezomib] (partner 0.002 µM)
Summary of the method: (§1)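 Each reported value is a median over duplicate plates. It expresses relative viability: treated-well nuclei count divided by vehicle-well nuclei count. Lung cancer cell lines in 1536-well plates were dosed by pin tool a day after seeding, alone with one drug or with a fixed anchor-drug dose plus five library-drug doses (not always all listed) in √10 steps, and nuclei were counted after 5 days.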

[2] = compound: C[C@@H](N)c1ccc(C(=O)Nc2ccnc3[nH]ccc23)cc1 + CC(C)C[C@H](NC(=O)[C@H](Cc1ccccc1)NC(=O)c1cnccn1)B(O)O [Bortezomib] (partner 0.002 µM)
Summary of the method: as §1

[3] = compound: C[C@@H](N)c1ccc(C(=O)Nc2ccnc3[nH]ccc23)cc1 + C[C@@H](Oc1cc(-c2cnn(C3CCNCC3)c2)cnc1N)c1c(Cl)ccc(F)c1Cl [Crizotinib] (partner 1 µM)
Summary of the method: as §1

[4] = compound: C[C@@H](N)c1ccc(C(=O)Nc2ccnc3[nH]ccc23)cc1 + Cc1nc(Nc2ncc(C(=O)Nc3c(C)cccc3Cl)s2)cc(N2CCN(CCO)CC2)n1 [Dasatinib] (partner 0.075 µM)
Summary of the method: as §1

| Cell Line | relative viability ([1]; first compound 0.08 µM) | relative viability ([1]; first compound 0.8 µM) | relative viability ([1]; first compound 2.53 µM) | relative viability ([1]; first compound 8 µM) | relative viability ([2]; first compound 0.04 µM) | relative viability ([2]; first compound 0.1265 µM) | relative viability ([2]; first compound 0.4 µM) | relative viability ([2]; first compound 1.265 µM) | relative viability ([2]; first compound 4 µM) | relative viability ([3]; first compound 0.04 µM) | relative viability ([3]; first compound 0.1265 µM) | relative viability ([3]; first compound 0.4 µM) | relative viability ([3]; first compound 1.265 µM) | relative viability ([3]; first compound 4 µM) | relative viability ([4]; first compound 0.04 µM) | relative viability ([4]; first compound 0.1265 µM) | relative viability ([4]; first compound 0.4 µM) | relative viability ([4]; first compound 1.265 µM) | relative viability ([4]; first compound 4 µM) |
| --- | --- | --- | --- | --- | --- | --- | --- | --- | --- | --- | --- | --- | --- | --- | --- | --- | --- | --- | --- |
| HCC-78 | 0.439 | 0.405 | 0.467 | 0.619 | 0.504 | 0.42 | 0.661 | 0.69 | 0.313 | 0.383 | 0.347 | 0.363 | 0.453 | 0.32 | 0.556 | 0.376 | 0.51 | 0.388 | 0.614 |
| NCI-H2126 | 1.1 | 1.12 | 1.16 | 1.12 | 1.13 | 1.11 | 1.17 | 1.14 | 1.22 | 1.03 | 1.02 | 1.03 | 1.02 | 1.04 | 0.72 | 0.664 | 0.622 | 0.626 | 0.619 |
| H3255 | 0.826 | 0.835 | 1.41 | 0.741 | 0.827 | 0.86 | 0.895 | 0.955 | 0.657 | 0.862 | 0.979 | 1.04 | 0.972 | 0.761 | 0.344 | 0.432 | 0.519 | 0.331 | 0.4 |
| HCC-15 | 0.991 | 1.23 | 0.994 | 0.938 | 1.11 | 1.02 | 1.05 | – | 0.93 | 0.903 | 0.781 | 0.805 | – | 0.72 | 0.633 | 0.574 | 0.603 | – | 0.442 |
| NCI-H661 | 0.916 | 0.825 | 0.801 | 1.01 | 0.739 | 0.844 | 0.94 | 0.76 | 0.737 | 0.906 | 0.929 | 1.18 | 1.02 | 0.89 | 0.702 | 0.878 | 0.893 | 0.723 | 0.55 |
| NCI-H2009 | 1.04 | 0.989 | 1.09 | 0.99 | 0.89 | 0.928 | 0.969 | 0.354 | 0.827 | 1.05 | 0.954 | 0.825 | 0.808 | 0.644 | 0.18 | 0.268 | 0.199 | 0.171 | 0.154 |
| ChaGo-K-1 | 0.991 | 1.31 | 1.02 | 0.984 | 1.01 | 1.07 | 1 | – | 0.734 | 1.07 | 1.17 | 1.1 | – | 0.846 | 0.475 | 0.554 | 0.541 | 0.54 | 0.42 |
| COR-L23 | 0.872 | 0.993 | 0.95 | 0.981 | 0.827 | 0.983 | 1.03 | 0.779 | 0.341 | 0.64 | 0.741 | 0.647 | 0.412 | 0.17 | 0.44 | 0.511 | 0.466 | 0.424 | 0.266 |
| EMC-BAC-2 | 0.978 | 1.19 | 1.2 | 1.03 | 0.882 | 1.21 | 1.19 | 1.08 | 0.968 | 0.806 | 0.793 | 0.707 | 0.764 | 0.655 | 0.263 | 0.337 | 0.314 | 0.266 | 0.315 |
